Results as given in US11197891B2, “Therapies with lanthionine C-like protein 2 ligands and cells prepared therewith” (Landos Biopharma, Inc., priority 2017, dated 2021).
Like-named read-outs stand apart in the source and are kept apart here. One block for each compound: values may come before it.

Tests used:
[1] = target: T1, LANCL2 (Homo sapiens, UniProt Q9NS86); conditions: rows marked REF 18; read-out: SPR Affinity to LANCL2 (Kd); cited from earlier work
T1 sequence (Q9NS86 1-450): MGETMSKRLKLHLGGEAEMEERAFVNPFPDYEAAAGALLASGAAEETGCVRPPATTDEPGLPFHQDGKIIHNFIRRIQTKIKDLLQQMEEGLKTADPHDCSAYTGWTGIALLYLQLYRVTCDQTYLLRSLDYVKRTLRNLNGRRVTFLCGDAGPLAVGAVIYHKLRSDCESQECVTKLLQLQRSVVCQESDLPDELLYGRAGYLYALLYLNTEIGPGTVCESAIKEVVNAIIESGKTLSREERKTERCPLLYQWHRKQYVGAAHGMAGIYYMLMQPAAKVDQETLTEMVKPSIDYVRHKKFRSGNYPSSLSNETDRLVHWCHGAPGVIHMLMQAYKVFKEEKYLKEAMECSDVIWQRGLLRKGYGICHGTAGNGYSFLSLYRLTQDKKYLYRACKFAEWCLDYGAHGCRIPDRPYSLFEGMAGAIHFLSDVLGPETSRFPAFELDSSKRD

[2] = target: T1, LANCL2; test: Surface plasmon resonance (SPR) binding to LANCL2; conditions: Tables 1A and 1B; read-out: SPR Affinity to LANCL2 (Kd)
[3] = system: CD4+ T cells; test: Differentiation of CD4+ T cells into Tregs with metabolic modulators; assay type: cell-based, mice; conditions: BT-11 with PS-48 (5 μM), DASA-58 (10 μM) or thapsigargin (10 nM)
Procedure: (§1) Spleens from WT and Lancl2−/− mice were excised and crushed to generate a single cell suspension. CD4+ T cell fraction was enriched by negative selection via magnetic sorting with the BD IMag system. Naïve CD4+ T cells were obtained by incubation with a biotinylated CD62L antibody followed by conjugation to streptavidin coated magnetic beads. Naïve cells were incubated for 48 hours within anti-CD3 coated tissue culture plates in complete IMDM media containing all-trans retinoic acid and purified TGF-β to stimulate differentiation into Tregs. […] Metabolic modulators, PS-48 (5 μM), DASA-58 (10 μM), and thapsigargin (10 nM), were added at 0 h. […] Six hours prior to assay, cells were stimulated with PMA and ionomycin. Cells were collected from plate for downstream analysis by flow cytometry, gene expression and metabolic assay.

[4] = system: WT Tregs; test: Metabolic analysis (pyruvate kinase, pyruvate dehydrogenase, PEP) in in vitro Tregs; assay type: cell-based, mice; conditions: PS-48 (5 μM)
Procedure: (§2) Colons and cells were suspended within assay specific buffer and homogenized for 10 seconds. Homogenate was centrifuged for 10 minutes at 10,000×g. For enzyme activity assays, supernatant was collected and plated. Samples were mixed with enzyme developer and substrate. Colorimetric detection of NADH production was measured using a BioTek μQuant plate reader in combination with Gen5 software. For PEP assay, supernatant was deproteinized using perchloric acid mediated purification. Samples were plated and mixed with a probe, converter, developer mix. PEP concentration was measured by absorbance quantification on plate reader.
as §1, with “Cells were collected from plate for downstream analysis by flow cytometry, gene expression and metabolic assay.” left out

[5] = system: Mdr1a−/− mice; test: Mdr1a−/− mice with PS-48 injections (in vivo validation of immunometabolic effect); conditions: weekly intraperitoneal injections of PS-48
Procedure: as §2
To validate the in vitro immunometabolic findings, Mdr1a−/− mice were given weekly intraperitoneal injections of PS-48 or vehicle control. […] Similar patterns were observed within the DSS model.

[6] = system: PBMCs from Crohn's disease donors; test: PBMCs isolated from Crohn's disease donors, 24 hour culture; assay type: cell-based, human; conditions: presence of thapsigargin
Procedure: Fresh de-identified whole blood was obtained from commercial vendor. Blood was diluted and purified for PBMC fraction by LeukoSep tube. Remaining red blood cells were lysed by hypotonic lysis. […] For siRNA experiments, cells were first incubated with an OriGene 3-mer LANCL2 siRNA or scrambled control suspended within ViromerGreen transfection reagent for 6 hours. […] Cells were stimulated with PMA and ionomycin six hours prior to assay.
Whole blood was obtained from Crohn's disease patients, clinically categorized as mild to moderate disease.

[7] = system: C. difficile; test: C. difficile culture in chopped meat media (anti-microbial properties); conditions: 10 ug/mL

Structure (SMILES): CC1=CC(=O)CC(C)(C)[C@]1(O)/C=C/C(C)=C\C(=O)O [ABA, abscisic acid]
Kd [1]: 2.3 µM

Kd [2]: 84.3 µM
Structure (SMILES): O=C(c1cccc(-c2nc3ccccc3[nH]2)c1)N1CCN(C(=O)c2cccc(-c3nc4ccccc4[nH]3)c2)CC1 [BT-4]

Structure (SMILES): O=C(Nc1ccc(NC(=O)c2cccc(-c3nc4ccccc4[nH]3)c2)cc1)c1cccc(-c2nc3ccccc3[nH]2)c1 [BT-6]
Kd [2]: 18.2 µM

Kd [2]: 21.4 µM
Structure (SMILES): O=C(c1cccc(-c2nc3ccccc3[nH]2)n1)N1CCN(C(=O)c2cccc(-c3nc4ccccc4o3)n2)CC1 [BT-15]

Kd [2]: 11.7 µM
Structure (SMILES): O=C1CC=C(/C=C/c2ccc(C(=O)O)o2)CC1 [BT-ABA-5a]

Kd [2]: 4.65 µM
Structure (SMILES): O=C1CCC(O)(/C=C/c2cccc(C(=O)O)n2)CC1 [BT-ABA-13]

Kd [2]: 4.85 µM
Structure (SMILES): O=C1CCC(O)(/C=C/c2cc(C(=O)O)ccn2)CC1 [BT-ABA-16]

Kd [2]: 177 µM
Structure (SMILES): O=C1CCC(O)(/C=C/c2ccc(C(=O)O)o2)CC1 [BT-ABA-25]

Kd [2]: 163 µM
Structure (SMILES): O=C1CCC(O)(/C=C/c2cccc(C(=O)O)c2)CC1 [BT-BA-6]

Structure (SMILES): O=C(Nc1cccc(-c2nc3c([nH]2)C=CCC3)c1)c1ccc(C(=O)Nc2cccc(-c3nc4c([nH]3)C=CCC4)c2)cc1 [Compound 61610]
Kd [1]: 6.2 µM

Structure (SMILES): Nc1cccc(S(=O)(=O)N2CCCN(S(=O)(=O)c3ccc4c(c3)OCCO4)CC2)c1 [DASA-58]
Treg cell differentiation [3]: promotes high level differentiation in both treated and untreated cells

BT-11 induced change in PEP and PDH activity under PS-48 [4]: abrogated by treatment with PS-48
Structure (SMILES): O=C(O)/C=C(/CCc1ccc(Cl)cc1)c1ccccc1 [PS-48, reference compound]
Treg cell differentiation [3]: abrogates the increased differentiation of Tregs generated by BT-11
BT-11-induced changes across clinical, cellular and metabolic measures [5]: effectively blocked the BT-11-induced changes

Structure (SMILES): C/C=C(/C)C(=O)O[C@H]1C(C)=C2[C@H]([C@@H]1OC(=O)CCCCCCC)[C@@](C)(OC(C)=O)C[C@H](OC(=O)CCC)[C@@]1(O)[C@H]2OC(=O)[C@@]1(C)O [thapsigargin, reference compound]
Treg cell differentiation [3]: diminishes the BT-11 induced increase in Treg cell differentiation
induction of FOXP3+ cells in PBMCs treated with BT-11 [6]: prevented the increased induction of FOXP3+ cells

Structure (SMILES): CN[C@H](CC(C)C)C(=O)N[C@H]1C(=O)N[C@@H](CC(N)=O)C(=O)N[C@H]2C(=O)N[C@H]3C(=O)N[C@H](C(=O)N[C@H](C(=O)O)c4cc(O)cc(O)c4-c4cc3ccc4O)[C@H](O)c3ccc(c(Cl)c3)Oc3cc2cc(c3O[C@@H]2O[C@H](CO)[C@@H](O)[C@H](O)[C@H]2O[C@H]2C[C@](C)(N)[C@H](O)[C@H](C)O2)Oc2ccc(cc2Cl)[C@H]1O [vancomycin, reference compound]
reduction of colony forming units [7]: 95%
colony forming units ([7]; from 4 million): under 200,000
